Target: T1, human HIF-PHD2 (Homo sapiens, UniProt Q9GZT9)
T1 construct: purchased CrystalGenomics Ltd
Experiment: HIF-PHD inhibition assay (fluorescence polarization), human HIF-PHD2
Type: biochemical
Settings: 2-oxoglutaric acid 3.33 μmol/L
How it was run: (§1)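 Compounds tested for enzyme inhibition by fluorescence polarization. Subtracting the reading taken before enzyme addition from the post-addition reading gave activity in mP.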

T1 sequence (Q9GZT9 2-426 limits assumed): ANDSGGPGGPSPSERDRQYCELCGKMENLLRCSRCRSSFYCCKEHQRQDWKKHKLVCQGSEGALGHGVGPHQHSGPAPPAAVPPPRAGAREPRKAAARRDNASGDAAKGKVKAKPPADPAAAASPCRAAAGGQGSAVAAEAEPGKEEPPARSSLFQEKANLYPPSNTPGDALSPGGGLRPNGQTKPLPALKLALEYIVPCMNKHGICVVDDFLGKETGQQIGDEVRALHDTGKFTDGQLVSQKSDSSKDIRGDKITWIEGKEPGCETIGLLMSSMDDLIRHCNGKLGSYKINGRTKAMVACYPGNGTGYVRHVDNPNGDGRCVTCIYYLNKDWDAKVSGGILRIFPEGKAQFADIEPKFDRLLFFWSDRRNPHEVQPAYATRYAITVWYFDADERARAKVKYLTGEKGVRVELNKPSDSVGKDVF

Going from O=C(O)c1cnn(-c2nc(O)c3c(cnn3CCC3CCN(c4ccc(C(F)(F)F)cc4)CC3)n2)c1 [Example 172] to O=C(O)c1cnn(-c2nc(O)c3nn(CC4CCN(c5ccc(C(F)(F)F)cn5)CC4)cc3n2)c1 [Example 247], the IC50 falls from 0.034 µM to 0.017 µM (2-fold). The second is the more potent here.

Going from O=C(O)c1cnn(-c2nc(O)c3c(cnn3Cc3cccc(-c4ccc(C(F)(F)F)cc4)c3)n2)c1 [Example 41] to COc1ccc(-c2cccc(Cn3ncc4nc(-n5cc(C(=O)O)cn5)nc(O)c43)c2)cc1 [Example 42], the IC50 falls from 0.022 µM to 0.014 µM (1.6-fold). The second is the more potent here.

Going from O=C(O)c1cnn(-c2nc(O)c3c(n2)c(F)nn3CCC2CCCC2)c1 [Example 471] to Cc1nn(CCC2CCCC2)c2c(O)nc(-n3cc(C(=O)O)cn3)nc12 [Example 476], the IC50 rises from 0.015 µM to 0.036 µM (2.4-fold). The first is the more potent here.

First: O=C(O)c1cnn(-c2nc(O)c3c(cnn3CCCCc3ccc(Cl)cc3)n2)c1 [Example 165]
Second: O=C(O)c1cnn(-c2nc(O)c3c(cnn3Cc3ccc(Cl)cc3)n2)c1 [Example 13]
The IC50 of the first is 1.7-fold lower: 0.012 µM for the first, 0.02 µM for the second.

Compared with O=C(O)c1cnn(-c2nc(O)c3c(cnn3C[C@H]3CC[C@@H](Oc4ccccc4F)CC3)n2)c1 [Example 147], O=C(O)c1cnn(-c2nc(O)c3c(cnn3C[C@H]3CC[C@H](Oc4ccccc4F)CC3)n2)c1 [Example 146] is 2.8-fold higher in IC50: 0.0053 µM for the first, 0.015 µM for the second.

First: O=C(O)c1cnn(-c2nc(O)c3c(cnn3C(c3ccc(Cl)cc3)c3ccc(Cl)cc3)n2)c1 [Example 27]
Second: O=C(O)c1cnn(-c2nc(O)c3c(cnn3Cc3ccc(-c4cccc(F)c4F)cc3)n2)c1 [Example 76]
The IC50 of the first is 2.2-fold higher: 0.02 µM for the first, 0.0091 µM for the second. The second is the more potent here.

O=C(O)c1cnn(-c2nc(O)c3c(cnn3CCCOc3ccc(OCc4ccccc4)c(F)c3)n2)c1 [Example 181] and O=C(O)c1cnn(-c2nc(O)c3c(cnn3Cc3cccc(-c4ccccc4)c3)n2)c1 [Example 39] are within 1.5-fold of each other in IC50: 0.035 µM for the first, 0.025 µM for the second.

First: O=C(O)c1cnn(-c2nc(O)c3nn(CCC(c4ccccc4)c4ccccc4)cc3n2)c1 [Example 248]
Second: O=C(O)c1cnn(-c2nc(O)c3c(cnn3Cc3ccc4ccccc4c3)n2)c1 [Example 29]
The IC50 of the first is 2.5-fold lower: 0.015 µM for the first, 0.037 µM for the second. The first is the more potent here.

First: CC(C)(Cn1ncc2nc(-n3cc(C(=O)O)cn3)nc(O)c21)c1ccc2ccccc2c1 [Example 118]
Second: Cc1ccccc1-c1ccc(Cn2ncc3nc(-n4cc(C(=O)O)cn4)nc(O)c32)cc1F [Example 102]
The IC50 of the first is 2.4-fold higher: 0.045 µM for the first, 0.019 µM for the second. The second is the more potent here.

First: O=C(O)c1cnn(-c2nc(O)c3c(cnn3Cc3ccc(F)c(Br)c3)n2)c1 [Example 14]
Second: O=C(O)c1cnn(-c2nc(O)c3c(cnn3CCCOc3ccc4c(c3C3CC3)CCCC4)n2)c1 [Example 191]
The IC50 of the first is 4.2-fold lower: 0.031 µM for the first, 0.13 µM for the second. The first is the more potent here.

O=C(O)c1cnn(-c2nc(O)c3c(n2)c(F)nn3C[C@H]2CC[C@H](C(F)(F)F)CC2)c1 [Example 465] showed an IC50 of 0.011 µM.

Tested on: Hep3B cells
Experiment: EPO production assay (ELISA of culture supernatant)
Type: cell-based
Settings: Homo sapiens, 3 μmol/L test compound, 48 hours, relative to control (0.1% DMSO), read-out: EPO production stimulation rate with 3 μmol/L test compound
How it was run: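 Hep3B cells (40000/well) switched to MEM with 0.5% FBS and treated with compound (0.1% DMSO) for 48 h at 37 °C. Supernatant EPO measured by ELISA; value is fold stimulation at 3 μmol/L compound over unstimulated control.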

Compared with O=C(O)c1cnn(-c2nc(O)c3c(cnn3CCC3CCN(c4ccc(C(F)(F)F)cc4)CC3)n2)c1 [Example 172], O=C(O)c1cnn(-c2nc(O)c3nn(CC4CCN(c5ccc(C(F)(F)F)cn5)CC4)cc3n2)c1 [Example 247] is lower in fold induction at 3 µM: 19 for the first, 1.3 for the second.

Compared with O=C(O)c1cnn(-c2nc(O)c3c(cnn3Cc3cccc(-c4ccc(C(F)(F)F)cc4)c3)n2)c1 [Example 41], COc1ccc(-c2cccc(Cn3ncc4nc(-n5cc(C(=O)O)cn5)nc(O)c43)c2)cc1 [Example 42] is lower in fold induction at 3 µM: 9.5 for the first, 9.1 for the second.

First: O=C(O)c1cnn(-c2nc(O)c3c(n2)c(F)nn3CCC2CCCC2)c1 [Example 471]
Second: Cc1nn(CCC2CCCC2)c2c(O)nc(-n3cc(C(=O)O)cn3)nc12 [Example 476]
The fold induction at 3 µM of the first is lower: 1.4 for the first, 2.7 for the second.

Compared with O=C(O)c1cnn(-c2nc(O)c3c(cnn3CCCCc3ccc(Cl)cc3)n2)c1 [Example 165], O=C(O)c1cnn(-c2nc(O)c3c(cnn3Cc3ccc(Cl)cc3)n2)c1 [Example 13] is lower in fold induction at 3 µM: 15 for the first, 4.3 for the second.

Going from O=C(O)c1cnn(-c2nc(O)c3c(cnn3C[C@H]3CC[C@@H](Oc4ccccc4F)CC3)n2)c1 [Example 147] to O=C(O)c1cnn(-c2nc(O)c3c(cnn3C[C@H]3CC[C@H](Oc4ccccc4F)CC3)n2)c1 [Example 146], the fold induction at 3 µM falls from 4 to 2.6.

Compared with O=C(O)c1cnn(-c2nc(O)c3c(cnn3C(c3ccc(Cl)cc3)c3ccc(Cl)cc3)n2)c1 [Example 27], O=C(O)c1cnn(-c2nc(O)c3c(cnn3Cc3ccc(-c4cccc(F)c4F)cc3)n2)c1 [Example 76] is lower in fold induction at 3 µM: 26 for the first, 6.9 for the second.

Going from O=C(O)c1cnn(-c2nc(O)c3c(cnn3CCCOc3ccc(OCc4ccccc4)c(F)c3)n2)c1 [Example 181] to O=C(O)c1cnn(-c2nc(O)c3c(cnn3Cc3cccc(-c4ccccc4)c3)n2)c1 [Example 39], the fold induction at 3 µM falls from 34 to 5.

Compared with O=C(O)c1cnn(-c2nc(O)c3nn(CCC(c4ccccc4)c4ccccc4)cc3n2)c1 [Example 248], O=C(O)c1cnn(-c2nc(O)c3c(cnn3Cc3ccc4ccccc4c3)n2)c1 [Example 29] is higher in fold induction at 3 µM: 3.2 for the first, 4.2 for the second.

Going from CC(C)(Cn1ncc2nc(-n3cc(C(=O)O)cn3)nc(O)c21)c1ccc2ccccc2c1 [Example 118] to Cc1ccccc1-c1ccc(Cn2ncc3nc(-n4cc(C(=O)O)cn4)nc(O)c32)cc1F [Example 102], the fold induction at 3 µM falls from 17 to 9.8.

Going from O=C(O)c1cnn(-c2nc(O)c3c(cnn3Cc3ccc(F)c(Br)c3)n2)c1 [Example 14] to O=C(O)c1cnn(-c2nc(O)c3c(cnn3CCCOc3ccc4c(c3C3CC3)CCCC4)n2)c1 [Example 191], the fold induction at 3 µM rises from 1.4 to 1.6.

O=C(O)c1cnn(-c2nc(O)c3c(n2)c(F)nn3C[C@H]2CC[C@H](C(F)(F)F)CC2)c1 [Example 465] gave a fold induction at 3 µM of 2.5.

Target: T2, human HIF-PHD3 (Homo sapiens, UniProt Q9H6Z9)
T2 construct: purchased CrystalGenomics Ltd
Experiment: HIF-PHD inhibition assay (fluorescence polarization), human HIF-PHD3
Type: biochemical
Settings: 2-oxoglutaric acid 166 μmol/L
How it was run: as §1

T2 sequence (Q9H6Z9 whole entry): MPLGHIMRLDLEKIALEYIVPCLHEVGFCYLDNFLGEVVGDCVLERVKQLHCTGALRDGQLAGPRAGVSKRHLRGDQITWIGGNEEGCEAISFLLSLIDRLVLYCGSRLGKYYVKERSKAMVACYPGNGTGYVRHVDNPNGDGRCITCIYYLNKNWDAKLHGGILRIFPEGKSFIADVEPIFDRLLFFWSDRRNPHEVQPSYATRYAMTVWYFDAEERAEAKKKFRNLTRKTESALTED

O=C(O)c1cnn(-c2nc(O)c3c(cnn3CCC3CCN(c4ccc(C(F)(F)F)cc4)CC3)n2)c1 [Example 172] and O=C(O)c1cnn(-c2nc(O)c3nn(CC4CCN(c5ccc(C(F)(F)F)cn5)CC4)cc3n2)c1 [Example 247] are within 1.5-fold of each other in IC50: 0.25 µM for the first, 0.27 µM for the second.

Going from O=C(O)c1cnn(-c2nc(O)c3c(cnn3Cc3cccc(-c4ccc(C(F)(F)F)cc4)c3)n2)c1 [Example 41] to COc1ccc(-c2cccc(Cn3ncc4nc(-n5cc(C(=O)O)cn5)nc(O)c43)c2)cc1 [Example 42], the IC50 rises from 0.34 µM to 1.4 µM (4.1-fold). The first is the more potent here.

Compared with O=C(O)c1cnn(-c2nc(O)c3c(n2)c(F)nn3CCC2CCCC2)c1 [Example 471], Cc1nn(CCC2CCCC2)c2c(O)nc(-n3cc(C(=O)O)cn3)nc12 [Example 476] is 3.4-fold higher in IC50: 0.17 µM for the first, 0.57 µM for the second.

O=C(O)c1cnn(-c2nc(O)c3c(cnn3CCCCc3ccc(Cl)cc3)n2)c1 [Example 165] and O=C(O)c1cnn(-c2nc(O)c3c(cnn3Cc3ccc(Cl)cc3)n2)c1 [Example 13] are within 1.5-fold of each other in IC50: 0.21 µM for the first, 0.23 µM for the second.

O=C(O)c1cnn(-c2nc(O)c3c(cnn3C[C@H]3CC[C@@H](Oc4ccccc4F)CC3)n2)c1 [Example 147] and O=C(O)c1cnn(-c2nc(O)c3c(cnn3C[C@H]3CC[C@H](Oc4ccccc4F)CC3)n2)c1 [Example 146] are within 1.5-fold of each other in IC50: 0.33 µM for the first, 0.3 µM for the second.

First: O=C(O)c1cnn(-c2nc(O)c3c(cnn3C(c3ccc(Cl)cc3)c3ccc(Cl)cc3)n2)c1 [Example 27]
Second: O=C(O)c1cnn(-c2nc(O)c3c(cnn3Cc3ccc(-c4cccc(F)c4F)cc3)n2)c1 [Example 76]
The IC50 of the first is 22-fold higher: 2.6 µM for the first, 0.12 µM for the second. The second is the more potent here.

Going from O=C(O)c1cnn(-c2nc(O)c3c(cnn3CCCOc3ccc(OCc4ccccc4)c(F)c3)n2)c1 [Example 181] to O=C(O)c1cnn(-c2nc(O)c3c(cnn3Cc3cccc(-c4ccccc4)c3)n2)c1 [Example 39], the IC50 rises from 0.22 µM to 0.35 µM (1.6-fold). The first is the more potent here.

Compared with O=C(O)c1cnn(-c2nc(O)c3nn(CCC(c4ccccc4)c4ccccc4)cc3n2)c1 [Example 248], O=C(O)c1cnn(-c2nc(O)c3c(cnn3Cc3ccc4ccccc4c3)n2)c1 [Example 29] is 2-fold higher in IC50: 0.099 µM for the first, 0.2 µM for the second. The first is the more potent here.

Going from CC(C)(Cn1ncc2nc(-n3cc(C(=O)O)cn3)nc(O)c21)c1ccc2ccccc2c1 [Example 118] to Cc1ccccc1-c1ccc(Cn2ncc3nc(-n4cc(C(=O)O)cn4)nc(O)c32)cc1F [Example 102], the IC50 falls from 0.32 µM to 0.15 µM (2.1-fold). The second is the more potent here.

Going from O=C(O)c1cnn(-c2nc(O)c3c(cnn3Cc3ccc(F)c(Br)c3)n2)c1 [Example 14] to O=C(O)c1cnn(-c2nc(O)c3c(cnn3CCCOc3ccc4c(c3C3CC3)CCCC4)n2)c1 [Example 191], the IC50 rises from 0.28 µM to 0.54 µM (1.9-fold).

In the case of O=C(O)c1cnn(-c2nc(O)c3c(n2)c(F)nn3C[C@H]2CC[C@H](C(F)(F)F)CC2)c1 [Example 465], the IC50 is reported as 0.21 µM.

— patent US20150239889A1, “PYRAZOLOPYRIMIDINE COMPOUND” (MITSUBISHI TANABE PHARMA CORPORATION, priority 2012, published 2015)
